From US20070191333A1, “Antibacterial agents” (Warner Lambert Company LLC, priority 2003, published 2007)
≈ marks a conversion by molar mass, not a printed value. Where two headings read alike, the source gives them in different places.

How the values were obtained:
Assay type in all cases: cell-based
E. coli 2026 = test: Antibacterial microtitration MIC, E. coli 2026; details: strain 2026; for MIC: read-out: Minimum Inhibitory Concentrations E. coli 2026
Description: (§1) Test A—Antibacterial Assays The compounds of the present invention were tested against an assortment of Gram-negative and Gram-positive organisms using standard microtitration techniques (Cohen et. al., Antimicrob., 1985; 28:766; Heifetz, et. al., Antimicrob., 1974; 6:124).

M. catarrhalis BC-3531 = test: Antibacterial microtitration MIC, M. catarrhalis BC-3531; details: strain BC-3531; for MIC: Moraxella catarrhalis, BC3531, Gram Negative Bacteria, read-out: Minimum Inhibitory Concentrations M. catarrhalis BC-3531; for Minimum Inhibitory Concentrations M. catarrhalis BC-3531: Gram Negative Bacteria
Description: as §1

H. influenzae HI-3542 = test: Antibacterial microtitration MIC, H. influenzae HI-3542; details: strain HI-3542; for MIC: Haemophilus influenzae, HI3542, Gram Negative Bacteria, read-out: Minimum Inhibitory Concentrations H. influenzae HI-3542; for Minimum Inhibitory Concentrations H. influenzae HI-3542: Gram Negative Bacteria
Description: as §1

S pyogenes C203 = test: Antibacterial microtitration MIC, S pyogenes C203; details: Gram Positive Bacteria, strain C203; for MIC: read-out: Minimum Inhibitory Concentrations S pyogenes C203
Description: as §1

S. aureus UC-76 = test: Antibacterial microtitration MIC, S. aureus UC-76; details: strain UC-76; for MIC: Staphylococcus aureus, UC76, Gram Positive Bacteria, read-out: Minimum Inhibitory Concentrations S. aureus UC-76
Description: as §1

E. faecalis MGH-2 = test: Antibacterial microtitration MIC, E. faecalis MGH-2; details: strain MGH-2; for MIC: Enterococcus faecalis, MGH2, Gram Positive Bacteria, read-out: Minimum Inhibitory Concentrations E. faecalis MGH-2
Description: as §1

S. pneumo SV-1 = test: Antibacterial microtitration MIC, S. pneumo SV-1; details: Gram Positive Bacteria, strain SV-1; for MIC: read-out: Minimum Inhibitory Concentrations S. pneumo SV-1
Description: as §1

[1] = Escherichia coli, 2026, Gram Negative Bacteria
[2] = Escherichia coli, Gram Negative Bacteria

SMILES	MIC (M. catarrhalis BC-3531) [µg/mL]	MIC (H. influenzae HI-3542) [µg/mL]	MIC (S pyogenes C203) [µg/mL]	MIC (S. aureus UC-76) [µg/mL]	MIC (E. faecalis MGH-2) [µg/mL]	MIC (S. pneumo SV-1) [µg/mL]	also measured
Cc1c(N2CC[C@H]([C@H](N)CC#N)C2)c(F)cc2c(=O)n(N)c(=O)n(C3CC3)c12 (racemic) [drawing 389]	16 (≈ 41.4 µM)	4 (≈ 10.4 µM)	–	–	–	–	MIC (E. coli 2026; [1]): 32 µg/mL (≈ 82.8 µM)
Cc1c(N2C[C@H](CNCCC#N)[C@@H](F)C2)c(F)cc2c(=O)n(N)c(=O)n(C3CC3)c12 (racemic) [drawing 397]	16 (≈ 38.2 µM)	8 (≈ 19.1 µM)	–	–	–	–	MIC (E. coli 2026; [2]): 32 µg/mL (≈ 76.5 µM)
Cc1c(N2CC[C@H]([C@H](N)CC#N)C2)c(F)cc2c(=O)n(N)c(=O)n(C3CC3)c12 (racemic) [drawing 406]	–	–	0.5 (≈ 1.29 µM)	1 (≈ 2.59 µM)	4 (≈ 10.4 µM)	0.5 (≈ 1.29 µM)	–
Cc1c(N2C[C@H](CNCCC#N)[C@@H](F)C2)c(F)cc2c(=O)n(N)c(=O)n(C3CC3)c12 (racemic) [drawing 414]	–	–	1 (≈ 2.39 µM)	2 (≈ 4.78 µM)	4 (≈ 9.56 µM)	1 (≈ 2.39 µM)	–
Cc1c(N2C[C@@H](CNCCC#N)[C@H](C)C2)c(F)cc2c(=O)n(N)c(=O)n(C3CC3)c12 (single isomer, unassigned)	–	–	0.06 (≈ 0.145 µM)	0.25 (≈ 0.603 µM)	0.5 (≈ 1.21 µM)	0.06 (≈ 0.145 µM)	–
Cc1c(N2C[C@H](CNCCC#N)[C@@H](C)C2)c(F)cc2c(=O)n(N)c(=O)n(C3CC3)c12 (single isomer, unassigned)	–	–	0.125 (≈ 0.302 µM)	0.25 (≈ 0.603 µM)	0.5 (≈ 1.21 µM)	0.125 (≈ 0.302 µM)	–
Cc1c(N2CC[C@@H]([C@@H](N)CC#N)C2)c(F)cc2c(=O)n(N)c(=O)n(C3CC3)c12 (single isomer, unassigned) [drawing 390]	2 (≈ 5.18 µM)	1 (≈ 2.59 µM)	–	–	–	–	MIC (E. coli 2026; [1]): 8 µg/mL (≈ 20.7 µM)
Cc1c(N2CC[C@@H]([C@@H](N)CC#N)C2)c(F)cc2c(=O)[nH]c(=O)n(C3CC3)c12 (single isomer, unassigned) [drawing 391]	4 (≈ 10.8 µM)	4 (≈ 10.8 µM)	–	–	–	–	Minimum Inhibitory Concentrations E. coli 2026 (E. coli 2026; Gram Negative Bacteria): 32 µg/mL
Cc1c(N2CC[C@@H]([C@@H](N)CC#N)C2)c(F)cc2c(=O)[nH]c(=O)n(C3CC3)c12 (single isomer, unassigned) [drawing 392]	–	–	–	–	–	–	Minimum Inhibitory Concentrations E. coli 2026 (E. coli 2026; Gram Negative Bacteria): 8 µg/mL; Minimum Inhibitory Concentrations M. catarrhalis BC-3531 (M. catarrhalis BC-3531): 4 µg/mL; Minimum Inhibitory Concentrations H. influenzae HI-3542 (H. influenzae HI-3542): 2 µg/mL
Cc1c(N2CC[C@@H]([C@H](C)NCCC#N)C2)c(F)cc2c(=O)n(N)c(=O)n(C3CC3)c12 (single isomer, unassigned) [drawing 394]	1 (≈ 2.41 µM)	0.5 (≈ 1.21 µM)	–	–	–	–	MIC (E. coli 2026; [1]): 4 µg/mL (≈ 9.65 µM)
COc1c(N2CC[C@@H]([C@H](C)NCCC#N)C2)c(F)cc2c(=O)n(N)c(=O)n(C3CC3)c12 (single isomer, unassigned) [drawing 400]	16 (≈ 37.2 µM)	16 (≈ 37.2 µM)	–	–	–	–	MIC (E. coli 2026; [1]): 64 µg/mL (≈ 149 µM)
COc1c(N2CC[C@@H]([C@H](C)NCCC#N)C2)c(F)cc2c(=O)[nH]c(=O)n(C3CC3)c12 (single isomer, unassigned) [drawing 401]	64 (≈ 154 µM)	64 (≈ 154 µM)	–	–	–	–	MIC (E. coli 2026; [1]): 64 µg/mL (≈ 154 µM)
Cc1c(N2CC[C@@H]([C@@H](N)CC#N)C2)c(F)cc2c(=O)n(N)c(=O)n(C3CC3)c12 (single isomer, unassigned) [drawing 407]	–	–	0.03 (≈ 0.0776 µM)	0.125 (≈ 0.323 µM)	0.25 (≈ 0.647 µM)	0.06 (≈ 0.155 µM)	–
Cc1c(N2CC[C@@H]([C@@H](N)CC#N)C2)c(F)cc2c(=O)[nH]c(=O)n(C3CC3)c12 (single isomer, unassigned) [drawing 408]	–	–	0.125 (≈ 0.337 µM)	0.25 (≈ 0.673 µM)	0.5 (≈ 1.35 µM)	0.125 (≈ 0.337 µM)	–
Cc1c(N2CC[C@@H]([C@@H](N)CC#N)C2)c(F)cc2c(=O)[nH]c(=O)n(C3CC3)c12 (single isomer, unassigned) [drawing 409]	–	–	–	–	–	–	Minimum Inhibitory Concentrations S pyogenes C203 (S pyogenes C203): 0.25 µg/mL; Minimum Inhibitory Concentrations S. aureus UC-76 (S. aureus UC-76; Gram Positive Bacteria): 0.5 µg/mL; Minimum Inhibitory Concentrations E. faecalis MGH-2 (E. faecalis MGH-2; Gram Positive Bacteria): 1 µg/mL; Minimum Inhibitory Concentrations S. pneumo SV-1 (S. pneumo SV-1): 0.125 µg/mL
Cc1c(N2CC[C@@H]([C@H](C)NCCC#N)C2)c(F)cc2c(=O)n(N)c(=O)n(C3CC3)c12 (single isomer, unassigned) [drawing 411]	–	–	0.03 (≈ 0.0724 µM)	0.06 (≈ 0.145 µM)	0.125 (≈ 0.302 µM)	0.015 (≈ 0.0362 µM)	–

SMILES	MIC (M. catarrhalis BC-3531) [µg/mL]	MIC (H. influenzae HI-3542) [µg/mL]	MIC (S pyogenes C203) [µg/mL]	MIC (S. aureus UC-76) [µg/mL]	MIC (E. faecalis MGH-2) [µg/mL]	MIC (S. pneumo SV-1) [µg/mL]	also measured
COc1c(N2CC[C@@H]([C@H](C)NCCC#N)C2)c(F)cc2c(=O)n(N)c(=O)n(C3CC3)c12 (single isomer, unassigned) [drawing 417]	–	–	0.125 (≈ 0.29 µM)	0.25 (≈ 0.581 µM)	1 (≈ 2.32 µM)	0.125 (≈ 0.29 µM)	–
COc1c(N2CC[C@@H]([C@H](C)NCCC#N)C2)c(F)cc2c(=O)[nH]c(=O)n(C3CC3)c12 (single isomer, unassigned) [drawing 418]	–	–	0.5 (≈ 1.2 µM)	1 (≈ 2.41 µM)	2 (≈ 4.81 µM)	0.25 (≈ 0.602 µM)	–
Cc1c(N2C[C@@H](CNCCC#N)[C@H](C)C2)c(F)cc2c(=O)n(N)c(=O)n(C3CC3)c12 (stereo in doubt)	4 (≈ 9.65 µM)	2 (≈ 4.83 µM)	–	–	–	–	MIC (E. coli 2026; [2]): 8 µg/mL (≈ 19.3 µM)
Cc1c(N2C[C@H](CNCCC#N)[C@@H](C)C2)c(F)cc2c(=O)n(N)c(=O)n(C3CC3)c12 (stereo in doubt)	4 (≈ 9.65 µM)	4 (≈ 9.65 µM)	–	–	–	–	MIC (E. coli 2026; [2]): 8 µg/mL (≈ 19.3 µM)
Cc1c(N2CCC(C(N)CC#N)C2)c(F)cc2c(=O)n(N)c(=O)n(C3CC3)c12 (centres unmarked) [drawing 388]	0.5 (≈ 1.29 µM)	2 (≈ 5.18 µM)	–	–	–	–	MIC (E. coli 2026; [1]): 8 µg/mL (≈ 20.7 µM)
COc1c(N2CCC(C(N)CC#N)C2)c(F)cc2c(=O)n(N)c(=O)n(C3CC3)c12 (centres unmarked) [drawing 393]	16 (≈ 39.8 µM)	8 (≈ 19.9 µM)	–	–	–	–	MIC (E. coli 2026; [1]): 64 µg/mL (≈ 159 µM)
COc1c(N2C[C@@H]3CCC(NCCC#N)[C@@H]3C2)c(F)cc2c(=O)n(N)c(=O)n(C3CC3)c12 (some centres unmarked) [drawing 398]	64 (≈ 145 µM)	8 (≈ 18.1 µM)	–	–	–	–	MIC (E. coli 2026; [2]): 64 µg/mL (≈ 145 µM)
Cc1c(N2CC[C@@H](C(NCCC#N)c3ncco3)C2)c(F)cc2c(=O)n(N)c(=O)n(C3CC3)c12 (some centres unmarked) [drawing 399]	16 (≈ 34.2 µM)	4 (≈ 8.56 µM)	–	–	–	–	MIC (E. coli 2026; [2]): 16 µg/mL (≈ 34.2 µM)
Cc1c(N2CCC(C(N)C(C)(C)C#N)C2)c(F)cc2c(=O)n(N)c(=O)n(C3CC3)c12 (centres unmarked) [drawing 402]	–	32 (≈ 77.2 µM)	–	–	–	–	MIC (E. coli 2026; [1]): 64 µg/mL (≈ 154 µM); Minimum Inhibitory Concentrations M. catarrhalis BC-3531 (M. catarrhalis BC-3531): 5.25 µg/mL
Cc1c(N2CCC(C(N)C(C)(C)C#N)C2)c(F)cc2c(=O)n(N)c(=O)n(C3CC3)c12 (centres unmarked) [drawing 403]	–	–	–	–	–	–	Minimum Inhibitory Concentrations E. coli 2026 (E. coli 2026; Gram Negative Bacteria): 64 µg/mL; Minimum Inhibitory Concentrations M. catarrhalis BC-3531 (M. catarrhalis BC-3531): 16 µg/mL; Minimum Inhibitory Concentrations H. influenzae HI-3542 (H. influenzae HI-3542): 32 µg/mL
COc1c(N2CC(CNCCC#N)C3(CC3)C2)c(F)cc2c(=O)n(N)c(=O)n(C3CC3)c12 (centres unmarked) [drawing 404]	8 (≈ 18.1 µM)	1 (≈ 2.26 µM)	–	–	–	–	MIC (E. coli 2026; [1]): 2 µg/mL (≈ 4.52 µM)
Cc1c(N2CCC(C(N)CC#N)C2)c(F)cc2c(=O)n(N)c(=O)n(C3CC3)c12 (centres unmarked) [drawing 405]	–	–	0.125 (≈ 0.323 µM)	0.25 (≈ 0.647 µM)	0.5 (≈ 1.29 µM)	0.125 (≈ 0.323 µM)	–
COc1c(N2CCC(C(N)CC#N)C2)c(F)cc2c(=O)n(N)c(=O)n(C3CC3)c12 (centres unmarked) [drawing 410]	–	–	0.5 (≈ 1.24 µM)	2 (≈ 4.97 µM)	2 (≈ 4.97 µM)	0.5 (≈ 1.24 µM)	–
COc1c(N2C[C@@H]3CCC(NCCC#N)[C@@H]3C2)c(F)cc2c(=O)n(N)c(=O)n(C3CC3)c12 (some centres unmarked) [drawing 415]	–	–	1 (≈ 2.26 µM)	1 (≈ 2.26 µM)	4 (≈ 9.04 µM)	0.5 (≈ 1.13 µM)	–
Cc1c(N2CC[C@@H](C(NCCC#N)c3ncco3)C2)c(F)cc2c(=O)n(N)c(=O)n(C3CC3)c12 (some centres unmarked) [drawing 416]	–	–	8 (≈ 17.1 µM)	8 (≈ 17.1 µM)	32 (≈ 68.4 µM)	8 (≈ 17.1 µM)	–
